Measurements published in US7135464B2, “Method of administering decitabine” (SuperGen, Inc., priority 2002, dated 2006).
Where “and” joins values, the source holds several entries; their conditions need not be identical. Equal values may be shown once. Read-outs that look alike come from different tables or passages of the source.

Assays:
[1] = aqueous solution, cited from earlier work
[2] = cited from earlier work
[3] = aqueous solution

Nc1ncn([C@H]2C[C@H](O)[C@@H](CO)O2)c(=O)n1 [decitabine, 5-aza-2′-deoxycytidine]
decrease of concentration of decitabine ([1]; after 4 hours at 25° C.): about 10% | decrease of concentration of decitabine ([1]; after 24 hours at 4° C.): about 10% | decitabine concentration in patients ([2]; 100 mg/m^2 as a 3-hour infusion): about 0.4 μg/ml and ~2 μM | total urinary excretion, % of the administered dose ([2]; humans): less than 1% | volume of distribution ([2]; humans): about 4.6 L/kg | decitabine remaining in active form ([3]; storage at 4° C. for 6 days): less than 50% | decitabine remaining in active form ([3]; storage at 25° C. for 1 day): less than 50%
